target: human capsaicin receptor (VR1) (Homo sapiens, UniProt Q8NER1); experiment: Capsaicin receptor binding assay ([3H]RTX competition, VR1-transfected HEK293 membranes)
Sequence (Q8NER1 whole entry): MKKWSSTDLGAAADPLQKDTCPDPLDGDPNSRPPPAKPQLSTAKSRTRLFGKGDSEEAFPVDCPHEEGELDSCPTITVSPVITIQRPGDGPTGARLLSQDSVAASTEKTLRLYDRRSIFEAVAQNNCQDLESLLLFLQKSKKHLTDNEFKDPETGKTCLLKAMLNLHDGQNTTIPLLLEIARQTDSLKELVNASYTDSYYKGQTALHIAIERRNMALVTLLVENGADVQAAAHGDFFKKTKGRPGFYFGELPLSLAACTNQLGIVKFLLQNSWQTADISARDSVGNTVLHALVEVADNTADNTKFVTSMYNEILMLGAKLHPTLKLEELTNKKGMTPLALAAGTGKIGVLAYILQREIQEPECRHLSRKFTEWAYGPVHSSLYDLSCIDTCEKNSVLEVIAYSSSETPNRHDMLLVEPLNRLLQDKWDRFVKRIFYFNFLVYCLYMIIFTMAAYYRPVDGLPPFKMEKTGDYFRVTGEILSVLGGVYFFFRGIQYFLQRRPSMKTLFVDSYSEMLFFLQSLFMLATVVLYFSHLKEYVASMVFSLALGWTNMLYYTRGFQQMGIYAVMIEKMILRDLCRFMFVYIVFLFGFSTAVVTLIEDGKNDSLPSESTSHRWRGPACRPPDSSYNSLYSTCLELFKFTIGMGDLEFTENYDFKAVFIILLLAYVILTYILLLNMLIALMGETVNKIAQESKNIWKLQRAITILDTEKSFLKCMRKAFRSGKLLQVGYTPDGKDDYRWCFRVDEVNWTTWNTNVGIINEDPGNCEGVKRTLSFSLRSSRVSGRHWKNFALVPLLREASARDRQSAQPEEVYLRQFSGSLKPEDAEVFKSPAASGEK

Structure (SMILES) | Ki [µM]
CC(C)(C)c1ccc(Nc2nc(COCCCCN3CCOCC3)nc3cc(-c4ncccc4C(F)(F)F)ccc23)cc1 [Compound 125, (4-tert-Butyl-phenyl)-[2-(4-morpholin-4-yl-butoxymethyl)-7-(3-trifluoromethyl-pyridin-2-yl)-quinazolin-4-yl]-amine] | < 1
Cc1cccnc1-c1ccc2c(Nc3ccc(C(C)(C)C)cc3)nc(COCC(C)C)nc2n1 [Compound 129, (4-tert-Butyl-phenyl)-[2-isobutoxymethyl-7-(3-methyl-pyridin-2-yl)-pyrido[2,3-d]pyrimidin-4-yl]-amine] | < 1
Cc1cccnc1-c1ccc2c(Nc3ccc(C(C)C)cc3)nc(COCC(C)C)nc2n1 [Compound 130, [2-Isobutoxymethyl-7-(3-methyl-pyridin-2-yl)-pyrido[2,3-d]pyrimidin-4-yl]-(4-isopropyl-phenyl)-amine] | < 1
Cc1cccnc1-c1ccc2c(Nc3ccc(C(F)(F)F)cc3)nc(COCC(C)C)nc2n1 [Compound 131, [2-Isobutoxymethyl-7-(3-methyl-pyridin-2-yl)-pyrido[2,3-d]pyrimidin-4-yl]-(4-trifluoromethyl-phenyl)-amine] | < 1
COCc1nc(Nc2ccc(C(F)(F)F)nc2)c2ccc(-c3ncccc3C(F)(F)F)nc2n1 [Compound 147, [2-Methoxymethyl-7-(3-trifluoromethyl-pyridin-2-yl)-pyrido[2,3-d]pyrimidin-4-yl]-(6-trifluoromethyl-pyridin-3-yl)-amine] | < 1
COCc1nc(Nc2ccc(C(F)(F)F)nc2)c2ccc(-c3ncccc3C)nc2n1 [Compound 148, [2-Methoxymethyl-7-(3-methyl-pyridin-2-yl)-pyrido[2,3-d]pyrimidin-4-yl]-(6-trifluoromethyl-pyridin-3-yl)-amine] | < 1
COCc1nc(Nc2ccc(C3(C#N)CCC3)cc2)c2ccc(-c3ncccc3C)nc2n1 [Compound 149, 1-{4-[2-Methoxymethyl-7-(3-methyl-pyridin-2-yl)-pyrido[2,3-d]pyrimidin-4-ylamino]-phenyl}-cyclobutanecarbonitrile] | < 1
CCOCc1nc(Nc2ccc(C3(C#N)CCC3)cc2)c2ccc(-c3ncccc3Cl)nc2n1 [Compound 150, 1-{4-[7-(3-Chloro-pyridin-2-yl)-2-ethoxymethyl-pyrido[2,3-d]pyrimidin-4-ylamino]-phenyl}-cyclobutanecarbonitrile] | < 1
Cc1cccnc1-c1ccc2c(Nc3ccc(C4(C#N)CCC4)cc3)nc(COCC(C)C)nc2n1 [Compound 151, 1-{4-[2-Isobutoxymethyl-7-(3-methyl-pyridin-2-yl)-pyrido[2,3-d]pyrimidin-4-ylamino]-phenyl}-cyclobutanecarbonitrile] | < 1
FC(F)(F)c1ccc(Nc2nc(COC3CCOCC3)nc3cc(-c4ncccc4C(F)(F)F)ccc23)cn1 [Compound 154, [2-(Tetrahydro-pyran-4-yloxymethyl)-7-(3-trifluoromethyl-pyridin-2-yl)-quinazolin-4-yl]-(6-trifluoromethyl-pyridin-3-yl)-amine] | < 1
CC(C)(C)c1ccc(Nc2nc(CO)nc3cc(-c4ncccc4C(F)(F)F)ccc23)cc1 [Compound 155, [4-(4-tert-Butyl-phenylamino)-7-(3-trifluoromethyl-pyridin-2-yl)-quinazolin-2-yl]-methanol] | < 1
CC(C)c1ccc(Nc2nc(CO)nc3cc(-c4ncccc4C(F)(F)F)ccc23)cc1 [Compound 156, [4-(4-Isopropyl-phenylamino)-7-(3-trifluoromethyl-pyridin-2-yl)-quinazolin-2-yl]-methanol] | < 1
CC(C)(C)c1ccc(Nc2nc(CO)nc3cc(-c4ncccc4Cl)ccc23)cc1 [Compound 157, [4-(4-tert-Butyl-phenylamino)-7-(3-chloro-pyridin-2-yl)-quinazolin-2-yl]-methanol] | < 1
CC(C)c1ccc(Nc2nc(CO)nc3cc(-c4ncccc4Cl)ccc23)cc1 [Compound 158, [7-(3-Chloro-pyridin-2-yl)-4-(4-isopropyl-phenylamino)-quinazolin-2-yl]-methanol] | < 1

Second part, the compound after the results:

Ki [µM] | Structure (SMILES)
< 1 | CN(C)CC(C)(C)COCc1nc(Nc2ccc(C(F)(F)F)cc2)c2ccc(-c3ncccc3C(F)(F)F)cc2n1 [Compound 123, [2-(3-Dimethylamino-2,2-dimethyl-propoxymethyl)-7-(3-trifluoromethyl-pyridin-2-yl)-quinazolin-4-yl]-(4-trifluoromethyl-phenyl)-amine]
< 1 | CC(C)(C)c1ccc(Nc2nc(COCCCN3CCOCC3)nc3cc(-c4ncccc4C(F)(F)F)ccc23)cc1 [Compound 124, (4-tert-Butyl-phenyl)-[2-(3-morpholin-4-yl-propoxymethyl)-7-(3-trifluoromethyl-pyridin-2-yl)-quinazolin-4-yl]-amine]
< 1 | COCc1nc(Nc2ccc(S(=O)(=O)N3CCOCC3)cc2)c2ccc(-c3ncccc3C(F)(F)F)cc2n1 [Compound 126, [2-Methoxymethyl-7-(3-trifluoromethyl-pyridin-2-yl)-quinazolin-4-yl]-[4-(morpholine-4-sulfonyl)-phenyl]-amine]
< 1 | CCOCc1nc(Nc2ccc(S(=O)(=O)N3CCOCC3)cc2)c2ccc(-c3ncccc3C(F)(F)F)cc2n1 [Compound 127, [2-Ethoxymethyl-7-(3-trifluoromethyl-pyridin-2-yl)-quinazolin-4-yl]-[4-(morpholine-4-sulfonyl)-phenyl]-amine]
< 1 | CC(C)OCc1nc(Nc2ccc(S(=O)(=O)N3CCOCC3)cc2)c2ccc(-c3ncccc3C(F)(F)F)cc2n1 [Compound 128, [2-Isopropoxymethyl-7-(3-trifluoromethyl-pyridin-2-yl)-quinazolin-4-yl]-[4-(morpholine-4-sulfonyl)-phenyl]-amine]
< 1 | CCOCc1nc(Nc2ccc(C(C)(C)C)cc2)c2ccc(-c3ncccc3Cl)nc2n1 [Compound 132, (4-tert-Butyl-phenyl)-[7-(3-chloro-pyridin-2-yl)-2-ethoxymethyl-pyrido[2,3-d]pyrimidin-4-yl]-amine]
< 1 | CCOCc1nc(Nc2ccc(C(C)C)cc2)c2ccc(-c3ncccc3Cl)nc2n1 [Compound 133, [7-(3-Chloro-pyridin-2-yl)-2-ethoxymethyl-pyrido[2,3-d]pyrimidin-4-yl]-(4-isopropyl-phenyl)-amine]
< 1 | CCOCc1nc(Nc2ccc(C(F)(F)F)cc2)c2ccc(-c3ncccc3Cl)nc2n1 [Compound 134, [7-(3-Chloro-pyridin-2-yl)-2-ethoxymethyl-pyrido[2,3-d]pyrimidin-4-yl]-(4-trifluoromethyl-phenyl)-amine]
< 1 | CCOCc1nc(Nc2ccc(S(=O)(=O)C(F)(F)F)cc2)c2ccc(-c3ncccc3Cl)nc2n1 [Compound 135, [7-(3-Chloro-pyridin-2-yl)-2-ethoxymethyl-pyrido[2,3-d]pyrimidin-4-yl]-(4-trifluoromethanesulfonyl-phenyl)-amine]
< 1 | CCOCc1nc(Nc2ccc(C(C)C(F)(F)F)cc2)c2ccc(-c3ncccc3Cl)nc2n1 (stereo not shown) [Compound 136, [7-(3-Chloro-pyridin-2-yl)-2-ethoxymethyl-pyrido[2,3-d]pyrimidin-4-yl]-[4-(2,2,2-trifluoro-1-methyl-ethyl)-phenyl]-amine]
< 1 | CCOCc1nc(Nc2ccc(C3CCCC3)cc2)c2ccc(-c3ncccc3Cl)nc2n1 [Compound 137, [7-(3-Chloro-pyridin-2-yl)-2-ethoxymethyl-pyrido[2,3-d]pyrimidin-4-yl]-(4-cyclopentyl-phenyl)-amine]
< 1 | CCOCc1nc(Nc2ccc(C(F)(F)F)cc2)c2ccc(-c3ncccc3C)nc2n1 [Compound 138, [2-Ethoxymethyl-7-(3-methyl-pyridin-2-yl)-pyrido[2,3-d]pyrimidin-4-yl]-(4-trifluoromethyl-phenyl)-amine]
< 1 | CCOCc1nc(Nc2ccc(C(C)C)cc2)c2ccc(-c3ncccc3C)nc2n1 [Compound 139, [2-Ethoxymethyl-7-(3-methyl-pyridin-2-yl)-pyrido[2,3-d]pyrimidin-4-yl]-(4-isopropyl-phenyl)-amine]
< 1 | CCOCc1nc(Nc2ccc(S(=O)(=O)C(F)(F)F)cc2)c2ccc(-c3ncccc3C)nc2n1 [Compound 140, [2-Ethoxymethyl-7-(3-methyl-pyridin-2-yl)-pyrido[2,3-d]pyrimidin-4-yl]-(4-trifluoromethanesulfonyl-phenyl)-amine]
< 1 | O=S(=O)(c1ccc(Nc2nc(COC3CCOCC3)nc3cc(-c4ncccc4C(F)(F)F)ccc23)cc1)N1CCOCC1 [Compound 141, [4-(Morpholine-4-sulfonyl)-phenyl]-[2-(tetrahydro-pyran-4-yloxymethyl)-7-(3-trifluoromethyl-pyridin-2-yl)-quinazolin-4-yl]-amine]
< 1 | O=S(=O)(c1ccc(Nc2nc(COCC3CC3)nc3cc(-c4ncccc4C(F)(F)F)ccc23)cc1)N1CCOCC1 [Compound 142, [2-Cyclopropylmethoxymethyl-7-(3-trifluoromethyl-pyridin-2-yl)-quinazolin-4-yl]-[4-(morpholine-4-sulfonyl)-phenyl]-amine]
< 1 | O=S(=O)(c1ccc(Nc2nc(COC3CCCC3)nc3cc(-c4ncccc4C(F)(F)F)ccc23)cc1)N1CCOCC1 [Compound 143, [2-Cyclopentyloxymethyl-7-(3-trifluoromethyl-pyridin-2-yl)-quinazolin-4-yl]-[4-(morpholine-4-sulfonyl)-phenyl]-amine]
< 1 | CN(C)CC(O)COCc1nc(Nc2ccc(C(F)(F)F)cc2)c2ccc(-c3ncccc3C(F)(F)F)cc2n1 (stereo not shown) [Compound 144, 1-Dimethylamino-3-[4-(4-trifluoromethyl-phenylamino)-7-(3-trifluoromethyl-pyridin-2-yl)-quinazolin-2-ylmethoxy]-propan-2-ol]
< 1 | CCN(CC)CC[C@@H](C)OCc1nc(Nc2ccc(C(C)(C)C)cc2)c2ccc(-c3ncccc3C(F)(F)F)cc2n1 [Compound 145, (4-tert-Butyl-phenyl)-[2-(3-diethylamino-1-methyl-propoxymethyl)-7-(3-trifluoromethyl-pyridin-2-yl)-quinazolin-4-yl]-amine]
< 1 | CCOCc1nc(Nc2ccc(C(F)(F)F)nc2)c2ccc(-c3ncccc3Cl)nc2n1 [Compound 146, [7-(3-Chloro-pyridin-2-yl)-2-ethoxymethyl-pyrido[2,3-d]pyrimidin-4-yl]-(6-trifluoromethyl-pyridin-3-yl)-amine]

— patent US20040156869A1, “2-substituted quinazolin-4-ylamine analogues” (Neurogen Corporation, priority 2002, published 2004)
